# Measured values taken from PubChem BioAssay AID1918931 (Molecular Pharmacology Branch, DTP, NCI, 2023).
# Where “and” joins values, the source holds several entries; their conditions need not be identical. Equal values may be shown once.
# System: 138582-337-R-J1-PDC complex spheroid viability
# Experiment: Anticancer human tumor 138582-337-R-J1-PDC patient-derived Merkel cell tumor cell line growth inhibition
# Conditions: for viability, T/C: stronger effect = lower value
# Procedure, shortened: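 Complex spheroids of tumor cells with HUVEC and human MSCs, exposed to iadademstat combined with other agents. Each agent tested in half-log steps from near clinical Cmax (else 10 microM top), DMSO ≤0.25%.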
# [1] = curve of first compound, second compound 0.1 µM
# [2] = curve of first compound, second compound 0.316 µM
# [3] = curve of first compound, second compound 1 µM
# [4] = curve of first compound, second compound 3.16 µM
# [5] = curve of first compound, second compound 10 µM
# [6] = second compound 0.1 µM, first compound 0.0316 µM
# [7] = second compound 0.1 µM, first compound 0.1 µM
# [8] = second compound 0.1 µM, first compound 0.316 µM
# [9] = second compound 0.1 µM, first compound 1 µM
# [10] = second compound 0.1 µM, first compound 3.16 µM
# [11] = second compound 0.1 µM, first compound 10 µM
# [12] = second compound 0.316 µM, first compound 0.0316 µM
# [13] = second compound 0.316 µM, first compound 0.1 µM
# [14] = second compound 0.316 µM, first compound 0.316 µM
# [15] = second compound 0.316 µM, first compound 1 µM
# [16] = second compound 0.316 µM, first compound 3.16 µM
# [17] = second compound 0.316 µM, first compound 10 µM
# [18] = second compound 1 µM, first compound 0.0316 µM
# [19] = second compound 1 µM, first compound 0.1 µM
# [20] = second compound 1 µM, first compound 0.316 µM
# [21] = second compound 1 µM, first compound 1 µM
# [22] = second compound 1 µM, first compound 3.16 µM
# [23] = second compound 1 µM, first compound 10 µM
# [24] = second compound 3.16 µM, first compound 0.0316 µM
# [25] = second compound 3.16 µM, first compound 0.1 µM
# [26] = second compound 3.16 µM, first compound 0.316 µM
# [27] = second compound 3.16 µM, first compound 1 µM
# [28] = second compound 3.16 µM, first compound 3.16 µM
# [29] = second compound 3.16 µM, first compound 10 µM
# [30] = second compound 10 µM, first compound 0.0316 µM
# [31] = second compound 10 µM, first compound 0.1 µM
# [32] = second compound 10 µM, first compound 0.316 µM
# [33] = second compound 10 µM, first compound 1 µM
# [34] = second compound 10 µM, first compound 3.16 µM
# [35] = second compound 10 µM, first compound 10 µM
# 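Wherever viability, T/C is given: 100% = DMSO vehicle control viability.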
smiles,measurement,setting,value
CC(C)c1c(-c2ccccc2)nc2c(C#N)c[nH]n2c1=O + NC1CCC(NC2CC2c2ccccc2)CC1,IC50,[1],> 10000 nM
same,IC50,[2],> 10000 nM
same,IC50,[3],> 10000 nM
same,IC50,[4],> 10000 nM
same,IC50,[5],> 10000 nM
same,"viability, T/C",[6],104%
same,"viability, T/C",[7],103%
same,"viability, T/C",[8],93.8%
same,"viability, T/C",[9],92.3%
same,"viability, T/C",[10],86%
same,"viability, T/C",[11],89.7%
same,"viability, T/C",[12],94.2%
same,"viability, T/C",[13],102%
same,"viability, T/C",[14],94.8%
same,"viability, T/C",[15],82%
same,"viability, T/C",[16],97.1%
same,"viability, T/C",[17],102%
same,"viability, T/C",[18],86.3%
same,"viability, T/C",[19],93.9%
same,"viability, T/C",[20],85.7%
same,"viability, T/C",[21],92%
same,"viability, T/C",[22],90%
same,"viability, T/C",[23],106%
same,"viability, T/C",[24],90%
same,"viability, T/C",[25],86.5%
same,"viability, T/C",[26],97.3%
same,"viability, T/C",[27],79.5%
same,"viability, T/C",[28],81.5%
same,"viability, T/C",[29],83.5%
same,"viability, T/C",[30],96.7%
same,"viability, T/C",[31],82.7%
same,"viability, T/C",[32],73.4%
same,"viability, T/C",[33],88.2%
same,"viability, T/C",[34],80.4%
same,"viability, T/C",[35],79.7%
Nc1ccn(C2OC(CO)C(O)C2(F)F)c(=O)n1 (stereo unspecified) + NC1CC1c1ccc(-c2cccc(O)c2)cc1,IC50,[1],> 300 nM
same,IC50,[2],> 300 nM
same,IC50,[3],> 300 nM
same,IC50,[4],> 300 nM
same,IC50,[5],> 300 nM
same,"viability, T/C","second compound 0.1 µM, first compound 0.000949 µM",75.3%
same,"viability, T/C","second compound 0.1 µM, first compound 0.003 µM",69.9%
same,"viability, T/C","second compound 0.1 µM, first compound 0.00949 µM",86.8%
same,"viability, T/C","second compound 0.1 µM, first compound 0.03 µM",59%
same,"viability, T/C","second compound 0.1 µM, first compound 0.0949 µM",56%
same,"viability, T/C","second compound 0.1 µM, first compound 0.3 µM",58.3%
same,"viability, T/C","second compound 0.316 µM, first compound 0.000949 µM",62.5%
same,"viability, T/C","second compound 0.316 µM, first compound 0.003 µM",83.7%
same,"viability, T/C","second compound 0.316 µM, first compound 0.00949 µM",73.7%
same,"viability, T/C","second compound 0.316 µM, first compound 0.03 µM",64.6%
same,"viability, T/C","second compound 0.316 µM, first compound 0.0949 µM",64.6%
same,"viability, T/C","second compound 0.316 µM, first compound 0.3 µM",67.9%
same,"viability, T/C","second compound 1 µM, first compound 0.000949 µM",77.1%
same,"viability, T/C","second compound 1 µM, first compound 0.003 µM",79.7%
same,"viability, T/C","second compound 1 µM, first compound 0.00949 µM",79.5%
same,"viability, T/C","second compound 1 µM, first compound 0.03 µM",72.8%
same,"viability, T/C","second compound 1 µM, first compound 0.0949 µM",66.7%
same,"viability, T/C","second compound 1 µM, first compound 0.3 µM",57.6%
same,"viability, T/C","second compound 3.16 µM, first compound 0.000949 µM",74.4%
same,"viability, T/C","second compound 3.16 µM, first compound 0.003 µM",75.7%
same,"viability, T/C","second compound 3.16 µM, first compound 0.00949 µM",83.7%
same,"viability, T/C","second compound 3.16 µM, first compound 0.03 µM",74.1%
same,"viability, T/C","second compound 3.16 µM, first compound 0.0949 µM",67.6%
same,"viability, T/C","second compound 3.16 µM, first compound 0.3 µM",85%
same,"viability, T/C","second compound 10 µM, first compound 0.000949 µM",93.5%
same,"viability, T/C","second compound 10 µM, first compound 0.003 µM",79%
same,"viability, T/C","second compound 10 µM, first compound 0.00949 µM",99.7%
same,"viability, T/C","second compound 10 µM, first compound 0.03 µM",73.5%
same,"viability, T/C","second compound 10 µM, first compound 0.0949 µM",70.3%
same,"viability, T/C","second compound 10 µM, first compound 0.3 µM",86.8%
CC(C)c1c(-c2ccccc2)nc2c(C#N)c[nH]n2c1=O + NC1CC1c1ccc(-c2cccc(O)c2)cc1,IC50,[1],6250 nM
same,IC50,[2],4400 nM
same,IC50,[3],4910 nM
same,IC50,[4],2530 nM
same,IC50,[5],> 10000 nM
same,"viability, T/C",[6],69.5%
same,"viability, T/C",[7],76.3%
same,"viability, T/C",[8],66.6%
same,"viability, T/C",[9],62.1%
same,"viability, T/C",[10],54.4%
same,"viability, T/C",[11],46.9%
same,"viability, T/C",[12],69.1%
same,"viability, T/C",[13],73.5%
same,"viability, T/C",[14],71.2%
same,"viability, T/C",[15],67.6%
same,"viability, T/C",[16],54.7%
same,"viability, T/C",[17],38.5%
same,"viability, T/C",[18],76.1%
same,"viability, T/C",[19],68.8%
same,"viability, T/C",[20],82%
same,"viability, T/C",[21],70.2%
same,"viability, T/C",[22],57.5%
same,"viability, T/C",[23],38.2%
same,"viability, T/C",[24],85.7%
same,"viability, T/C",[25],78.6%
same,"viability, T/C",[26],68.6%
same,"viability, T/C",[27],55.9%
same,"viability, T/C",[28],50.1%
same,"viability, T/C",[29],38.5%
same,"viability, T/C",[30],85.7%
same,"viability, T/C",[31],90.9%
same,"viability, T/C",[32],84.9%
same,"viability, T/C",[33],73.9%
same,"viability, T/C",[34],61.1%
same,"viability, T/C",[35],51.6%
CC(C)CC(NC(=O)C(Cc1ccccc1)NC(=O)c1cnccn1)B(O)O (stereo unspecified),"viability, T/C",compound 0.000316 µM,116% and 74.5%
same,"viability, T/C",compound 0.00316 µM,0.75% and 0.32%
same,"viability, T/C",compound 0.01 µM,0.21% and 0.23%
same,"viability, T/C",compound 0.0316 µM,0.25% and 0.21%
same,"viability, T/C",compound 0.1 µM,0.37% and 0.28%
same,IC50,curve of compound,0.922 nM and 0.463 nM
CC1COCCN1c1cc(-c2ccnn2C)c2ccnc(-c3ccn[nH]3)c2n1 (stereo unspecified) + NC1CC1c1ccc(-c2cccc(O)c2)cc1,IC50,[1],34.5 nM
same,IC50,[2],25.7 nM
same,IC50,[3],38.4 nM
same,IC50,[4],43.8 nM
same,IC50,[5],67.7 nM
same,"viability, T/C","second compound 0.1 µM, first compound 0.00316 µM",62.1%
same,"viability, T/C","second compound 0.1 µM, first compound 0.01 µM",65%
same,"viability, T/C",[6],50.3%
same,"viability, T/C",[7],34.1%
same,"viability, T/C",[8],26.3%
same,"viability, T/C",[9],28%
same,"viability, T/C","second compound 0.316 µM, first compound 0.00316 µM",68%
same,"viability, T/C","second compound 0.316 µM, first compound 0.01 µM",57.4%
same,"viability, T/C",[12],48%
same,"viability, T/C",[13],42.9%
same,"viability, T/C",[14],27.1%
same,"viability, T/C",[15],27.3%
same,"viability, T/C","second compound 1 µM, first compound 0.00316 µM",77.1%
same,"viability, T/C","second compound 1 µM, first compound 0.01 µM",74.7%
same,"viability, T/C",[18],54.4%
same,"viability, T/C",[19],28.2%
same,"viability, T/C",[20],30.1%
same,"viability, T/C",[21],25.8%
same,"viability, T/C","second compound 3.16 µM, first compound 0.00316 µM",80.4%
same,"viability, T/C","second compound 3.16 µM, first compound 0.01 µM",65.8%
same,"viability, T/C",[24],59.7%
same,"viability, T/C",[25],33.5%
same,"viability, T/C",[26],27.6%
same,"viability, T/C",[27],26.4%
same,"viability, T/C","second compound 10 µM, first compound 0.00316 µM",75.6%
same,"viability, T/C","second compound 10 µM, first compound 0.01 µM",85%
same,"viability, T/C",[30],57.6%
same,"viability, T/C",[31],46.2%
same,"viability, T/C",[32],30.5%
same,"viability, T/C",[33],26.5%
